The test system of one data set is healthy subjects. The experiment in a line: Example 1 Part 1 (SAD): safety in healthy subjects. In kind it is in vivo, human. The procedure:
Part 1 comprises a Screening Period of a maximum of 6 weeks. This is followed by a Treatment Period during which subjects are resident at the Clinical Unit from 1 day before investigational medicinal product (IMP) administration (Day −1) until at least 72 hours after IMP administration (Day 4). Subjects receive a single oral dose of AZD5055 or placebo on Day 1. This is followed by a Follow-up Visit within 6±1 day after the IMP dose.
The study was conducted in healthy male and healthy female subjects of non-childbearing potential with suitable veins for cannulation or repeated venipuncture. […] Also, the subjects were aged 18 to 55 years inclusive for men and women in Part 1 and only men in Part 2. For female subjects in Part 2, the age range was 18 to 49 years inclusive.
In Part 1 of the study, 3 dose levels of AZD5055 were investigated in 3 cohorts. Each cohort included 8 subjects. Within each cohort, 6 subjects were randomized to receive AZD5055, and 2 subjects were randomized to receive placebo. In Part 2 of the study, 3 dose levels of AZD5055 were investigated in 3 cohorts. In each cohort, 9 subjects were randomized to receive AZD5055, and 3 subjects were randomized to receive placebo.
Safety endpoints included adverse events; vital signs (supine blood pressure, pulse, respiratory rate, and body temperature); 12-lead ECG, 12-lead dECG, telemetry, physical examinations, clinical laboratory assessments (hematology, clinical chemistry [including serum creatinine and creatine phosphokinase], urinalysis [including protein and albumin creatinine ratios], and cardiac biomarkers [including cardiac Troponin T (cTNT), cardiac Troponin I; (cTNI), and B type natriuretic peptide]), and peripheral oxygen saturation (SpO2).
All safety data (scheduled and unscheduled) were presented in the data listings. Continuous variables were summarized using descriptive statistics (n, mean, standard deviation, min, median, max) by treatment. Categorical variables were summarized in frequency tables (frequency and proportion) by treatment (both Parts 1 and 2). The analysis of the safety variables was based on the safety analysis set. Adverse events were summarized by System Organ Class (SOC) and Preferred Term (PT) using Medical Dictionary for Regulatory Activities vocabulary. Furthermore, listings of serious adverse events (SAEs) and adverse events leading to the discontinuation of IMP (DAEs) were made and the number of subjects who had any adverse events (AEs), SAEs, DAEs and AEs with severe intensity were summarized. Adverse events that occur before dosing were reported separately. Tabulations and listings of data for ECG, vital signs, AEs, and clinical laboratory tests, measurements were presented.

Data set [1] is described as follows: oral bioavailability in several animal species. The settings on record: in vivo, read-out: observed oral bioavailability.
The subject of another data set is β-catenin reporter. Conditions: β-catenin reporter assay, rodent cells (Bunyard 2019); read-out: in vitro IC50; cited from earlier work.
The subject of another data set is porcupine (PORCN). The settings on record: statement in words; cited from earlier work.
The test system of data set [2] is mouse bleomycin in vivo pulmonary fibrosis. Conditions: mouse bleomycin in vivo study (Bunyard 2019); cited from earlier work.
Data set [3] relates to carbon tetrachloride-induced hepatic fibrosis in mice. Conditions: mice (Bunyard 2019); cited from earlier work.
For data set [4], the system named is renal fibrosis in a UUO model in mice. The settings on record: mice (Bunyard 2019); cited from earlier work.
The mark [5] stands for this setting: Part 1, across all AZD5055 doses.

`Cc1cc(-c2nccc3c2ccn3CC(=O)Nc2ccc(-c3cnccn3)cn2)ccn1` [AZD5055, 2-[4-(2-methyl-4-pyridyl)pyrrolo[3,2-c]pyridin-1-yl]-N-(5-pyrazin-2-yl-2-pyridyl)acetamide]: in the data set on healthy subjects (Part 1), the “AEs possibly related to AZD5055” value is “dizziness, ventricular tachycardia, wheezing, upper abdominal pain, vomiting, and nausea”; the “clinical laboratory results, vital signs, physical examinations, ECGs” value was “No clinically relevant trends”; the “trends for AEs by SOC or PT” value was “no notable trends”. Further, in the data set on healthy subjects (setting [5]), the “subjects with at least one AE” value came to 4 subjects; the “subjects with at least one AE possibly related to AZD5055” value is 3 subjects; the “subjects with at least one AE possibly related to AZD5055, percent” value came out at 16.7%; the “subjects with at least one AE, percent” value is 22.2%. Further, the AE intensity result with healthy subjects (Part 1, all AEs) is “Grade 1 (mild)”. The AE outcome with healthy subjects (Part 1, all AEs, by end of study) was “recovered/resolved by the end of the study”. For the same molecule, the “SAEs, deaths, AEs leading to discontinuation or withdrawal” value with healthy subjects (Part 1, all doses) is given as “no SAEs, deaths, or AEs leading to discontinuation of AZD5055 or withdrawal from the study”. The tolerability entry in the data set on healthy subjects (single oral suspension dose 7, 20 and 40 mg, n=6 per dose level) is listed as “well-tolerated”. In data set [1], the bioavailability lay in the range of 40 to 60%. The 50% inhibitory concentration (IC50) with β-catenin reporter is 0.64 nM. Further, the “inhibition of the intracellular enzyme porcupine (PORCN)” value in the data set on porcupine (PORCN) was “potent, and selective inhibitor”. Besides, the pulmonary fibrosis entry in data set [2] is “reduced pulmonary fibrosis”. Also, the “carbon tetrachloride-induced hepatic fibrosis” value in data set [3] is “reduces”. Further, the “renal fibrosis, UUO model” value in data set [4] is given as “reduces”.

(Values after patent publication US20260345593A1, “ORAL FORMULATION OF N-PYRIDINYL ACETAMIDE DERIVATIVE FOR TREATING INTERSTITIAL LUNG DISEASE” (AstraZeneca AB, priority 2022, published 2026).)
